Experimental findings from patent publication US9533985B2, “Sulfonamide derivative and medicinal use thereof” (EA Pharma Co., Ltd., priority 2012, dated 2017) are described below.

Type in all cases: cell-based
In one test the target is α4β1 integrin (Homo sapiens (Human), UniProt P05556+P13612). Put plainly: VCAM-1/α4β1 integrin binding inhibitory activity evaluation test (Jurkat cell adhesion to VCAM-1/Fc). The following applies: Jurkat cells binding to recombinant human VCAM-1/Fc. The method, then: The ability of test substances to inhibit the binding of a human T-cell line, Jurkat, which is known to express α4β1 integrin, to VCAM-1 was measured. To 96-well microtiter plates, recombinant human VCAM-1/Fc (R&D systems) solution (1 μg/mL) diluted with buffer A (carbonate buffer, pH 9.6) was added at 50 μL/well, followed by incubation at 4° C. overnight. After washing once with PBS, Block Ace (Snow Brand Milk Products Company, Limited) was added at 150 μL/well, followed by incubation at room temperature for 2 hours. After removal, washing was conducted once with PBS. 100 μL of each test substance diluted with a binding buffer (DMEM containing 40 mM HEPES, 0.2% BSA, and 4 mM MnCl2) to various concentrations and 100 μL of the Jurkat cells (2×10^6 cell/mL) were added to the plates coated with VCAM-1/Fc (5×10^5 cells/well), followed by incubation at 30° C. for 15 minutes to 60 minutes. After the cells were bound to each well, unbound cells were removed by washing with PBS. To the plates, buffer C (PBS containing 1.5% Triton X-100) was added at 50 μL/well to lyse the bound Jurkat cells. To 30 μL of the cell lysate, 30 μL of Substrate Buffer (Promega, CytoTox 96 Non-Radioactive Cytotoxicity Assay) was added, and the reaction was allowed to proceed at room temperature in a dark place for 30 minutes. To each well, 30 μL of Stop Solution (Promega, CytoTox 96 Non-Radioactive Cytotoxicity Assay) was added, and the absorbance at 490 nm was measured by using a plate reader. Here, by the obtained absorbance, the activity of the lactate dehydrogenase (LDH) dissolved into the supernatant of each well was detected. In other words, the absorbance was proportional to the number of the Jurkat cells bound to VCAM-1 and remaining on the plate. The test was duplicated. The binding ratios of the cells at various concentrations were determined, with the absorbance of a well containing no test substances taken as 100%. Then, the concentration IC50, at which 50% binding inhibition was achieved, was calculated. […] Note that, among the compounds synthesized in the corresponding Examples, the compounds in the free form (Compounds A-1 to A-39) were used as the test compounds. Hereinafter, the same shall apply.
Sequence of α4β1 integrin (P13612 34-1032): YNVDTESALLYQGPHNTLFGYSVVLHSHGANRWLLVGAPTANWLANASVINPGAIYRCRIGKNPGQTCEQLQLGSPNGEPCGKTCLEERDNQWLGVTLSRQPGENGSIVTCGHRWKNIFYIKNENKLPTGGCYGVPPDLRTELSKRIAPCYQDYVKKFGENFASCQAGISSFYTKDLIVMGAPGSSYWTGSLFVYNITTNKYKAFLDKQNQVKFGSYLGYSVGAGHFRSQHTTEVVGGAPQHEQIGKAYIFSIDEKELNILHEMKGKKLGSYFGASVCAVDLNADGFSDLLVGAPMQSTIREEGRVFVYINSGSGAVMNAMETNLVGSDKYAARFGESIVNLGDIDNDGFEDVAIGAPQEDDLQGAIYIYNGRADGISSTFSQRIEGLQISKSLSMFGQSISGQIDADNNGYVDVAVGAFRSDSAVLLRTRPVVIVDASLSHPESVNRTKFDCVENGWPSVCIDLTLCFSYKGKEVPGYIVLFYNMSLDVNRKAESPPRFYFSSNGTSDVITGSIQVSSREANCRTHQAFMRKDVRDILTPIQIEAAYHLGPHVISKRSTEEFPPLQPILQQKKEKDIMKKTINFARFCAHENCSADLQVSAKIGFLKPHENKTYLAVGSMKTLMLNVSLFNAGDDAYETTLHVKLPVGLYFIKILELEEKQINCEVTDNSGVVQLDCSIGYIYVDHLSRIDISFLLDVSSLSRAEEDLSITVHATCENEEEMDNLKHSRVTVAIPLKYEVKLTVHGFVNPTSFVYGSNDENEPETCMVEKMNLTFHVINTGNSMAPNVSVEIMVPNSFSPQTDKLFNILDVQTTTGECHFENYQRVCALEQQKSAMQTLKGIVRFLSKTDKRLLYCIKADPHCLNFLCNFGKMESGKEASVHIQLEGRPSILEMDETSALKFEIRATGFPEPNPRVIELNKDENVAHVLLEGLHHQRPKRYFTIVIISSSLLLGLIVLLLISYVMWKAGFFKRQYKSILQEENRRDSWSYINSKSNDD
Sequence of α4β1 integrin (P05556 21-798): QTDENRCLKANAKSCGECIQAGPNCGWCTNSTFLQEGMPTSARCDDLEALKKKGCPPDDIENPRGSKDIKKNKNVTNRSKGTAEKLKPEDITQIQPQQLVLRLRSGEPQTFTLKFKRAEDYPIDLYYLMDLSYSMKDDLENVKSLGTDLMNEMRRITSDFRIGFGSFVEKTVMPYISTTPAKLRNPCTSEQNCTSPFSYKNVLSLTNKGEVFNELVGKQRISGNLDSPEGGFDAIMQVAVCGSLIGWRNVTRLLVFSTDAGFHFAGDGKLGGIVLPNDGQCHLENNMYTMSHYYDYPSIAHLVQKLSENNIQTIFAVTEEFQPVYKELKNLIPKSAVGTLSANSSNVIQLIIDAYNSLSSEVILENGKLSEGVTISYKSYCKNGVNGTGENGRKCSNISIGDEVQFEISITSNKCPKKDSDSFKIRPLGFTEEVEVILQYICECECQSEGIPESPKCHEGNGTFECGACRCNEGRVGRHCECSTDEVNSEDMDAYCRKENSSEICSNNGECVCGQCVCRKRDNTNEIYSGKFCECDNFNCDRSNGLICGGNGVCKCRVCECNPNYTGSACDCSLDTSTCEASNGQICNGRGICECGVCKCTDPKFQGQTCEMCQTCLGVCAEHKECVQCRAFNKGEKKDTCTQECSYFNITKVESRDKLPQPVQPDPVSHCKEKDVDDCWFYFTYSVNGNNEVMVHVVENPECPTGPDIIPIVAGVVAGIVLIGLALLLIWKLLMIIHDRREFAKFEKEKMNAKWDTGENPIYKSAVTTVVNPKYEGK

The target of test [1] is T1, α4β7 integrin (Homo sapiens (Human), UniProt P13612+P26010). Description: MAdCAM-1/α4β7 integrin binding inhibitory activity evaluation test in the presence of serum (1). The following applies: RPMI-8866 cells binding to mouse MAdCAM-1/Fc, human serum at final concentration of 50%; read-out: α4β7 with serum added, IC50. The protocol: (§1) The ability of test substances to inhibit the binding of a human B cell line, RPMI-8866, which is known to express α4β7 integrin, to MAdCAM-1 was measured. To 96-well microtiter plates, recombinant mouse MAdCAM-1/Fc (R&D systems) solution (1 μg/mL) diluted with buffer A (carbonate buffer, pH 9.6) was added at 50 μL/well, followed by incubation at 4° C. overnight. After washing once with PBS, Block Ace (Snow Brand Milk Products Company, Limited) was added at 150 μL/well, followed by incubation at room temperature for 2 hours. After removal, washing was conducted once with PBS. 100 μL of each test substance diluted with a binding buffer (DMEM containing 40 mM HEPES, 0.2% BSA, and 4 mM MnCl2) to various concentrations and 100 μL of RPMI-8866 cells (2×10^6 cell/mL) were added to plates coated with MAdCAM-1/Fc (5×10^5 cells/well) with human serum being contained at a final concentration of 50%, followed by incubation at 30° C. for 15 minutes to 60 minutes. After the cells were bound to each well, unbound cells were removed by washing with PBS. To the plates, buffer C (PBS containing 1.5% Triton X-100) was added at 50 μL/well to lyse the bound RPMI-8866 cells. To 30 μL of the cell lysate, 30 μL of Substrate Buffer (Promega, CytoTox 96 Non-Radioactive Cytotoxicity Assay) was added, and the reaction was allowed to proceed at room temperature in a dark place for 30 minutes. To each well, 30 μL of Stop Solution (Promega, CytoTox 96 Non-Radioactive Cytotoxicity Assay) was added, and the absorbance at 490 nm was measured by using a plate reader. Here, by the obtained absorbance, the activity of the lactate dehydrogenase (LDH) dissolved into the supernatant of each well was detected. In other words, the absorbance was proportional to the number of the RPMI-8866 cells bound to MAdCAM-1 and remaining on the plate. The test was duplicated. The binding ratios of the cells at various concentrations were determined, with the absorbance of a well containing no test substance taken as 100%. Then, the concentration IC50, at which 50% binding inhibition was achieved, was calculated.
T1 sequence (P13612 34-1032): as the sequence (P13612 34-1032) above
T1 sequence (P26010 20-798): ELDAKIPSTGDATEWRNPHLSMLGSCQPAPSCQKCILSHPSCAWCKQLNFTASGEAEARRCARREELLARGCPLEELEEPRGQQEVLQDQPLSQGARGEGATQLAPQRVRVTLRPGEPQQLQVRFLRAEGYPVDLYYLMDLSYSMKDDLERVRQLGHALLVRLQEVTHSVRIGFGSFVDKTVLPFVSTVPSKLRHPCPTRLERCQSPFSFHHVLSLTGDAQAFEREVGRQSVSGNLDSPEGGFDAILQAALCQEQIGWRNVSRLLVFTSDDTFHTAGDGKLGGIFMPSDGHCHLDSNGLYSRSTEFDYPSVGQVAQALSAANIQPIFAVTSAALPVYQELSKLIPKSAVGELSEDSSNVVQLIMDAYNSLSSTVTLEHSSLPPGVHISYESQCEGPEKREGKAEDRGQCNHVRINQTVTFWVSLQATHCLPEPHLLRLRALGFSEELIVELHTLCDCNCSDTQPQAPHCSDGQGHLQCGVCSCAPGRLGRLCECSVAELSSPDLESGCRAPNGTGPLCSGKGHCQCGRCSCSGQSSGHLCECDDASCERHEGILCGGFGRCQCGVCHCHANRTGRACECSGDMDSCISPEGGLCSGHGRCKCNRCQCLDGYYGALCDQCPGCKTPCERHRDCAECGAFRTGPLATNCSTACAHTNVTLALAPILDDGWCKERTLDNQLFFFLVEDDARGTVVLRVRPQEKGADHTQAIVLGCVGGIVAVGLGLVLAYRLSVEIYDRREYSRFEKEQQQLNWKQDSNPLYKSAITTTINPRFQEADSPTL

Test [2] concerns the target T1, α4β7 integrin. Put plainly: MAdCAM-1/α4β7 integrin binding inhibitory activity evaluation test (RPMI-8866 cell adhesion to MAdCAM-1/Fc). To be noted: for Selectivity: IC50 in VCAM-1/α4β1 test divided by IC50 in MAdCAM-1/α4β7 test; for IC50: RPMI-8866 cells binding to recombinant mouse MAdCAM-1/Fc, no serum. The protocol:
as §1, with “systems) solution (0.75 μg/mL) diluted” for “systems) solution (1 μg/mL) diluted”, “A (carbonate buffer solution, pH 9.6)” for “A (carbonate buffer, pH 9.6)”, “diluted with binding buffer” for “diluted with a binding buffer”, “added to the plates coated” for “added to plates coated”, “MAdCAM-1/Fc (5×10^5 cells/well), followed by” for “MAdCAM-1/Fc (5×10^5 cells/well) with human serum being contained at a final concentration of 50%, followed by”, “was calculated. […] Note that the selectivity in the table was determined by dividing the IC50 value in VCAM-1/α4β1 Integrin Binding Inhibitory Activity Evaluation Test by the IC50 value in the MAdCAM-1/α4β7 integrin binding inhibitory activity evaluation test.” for “was calculated.”

Consider `Cn1c(=O)n(-c2ccc(C[C@H](NC(=O)c3ccc(NS(=O)(=O)c4ccncc4)cc3F)C(=O)O)cc2)c(=O)c2ccncc21` [Example 39, N-{2-Fluoro-4-[(pyridin-4-yl-sulfonyl)amino]benzoyl}-4-(1-methyl-2,4-dioxo-1,4-dihydropyrido[3,4-d]pyrimidin-3(2H)-yl)-L-phenylalanine], for which the IC50 (usually the point on the concentration scale where inhibition reaches its midpoint) at α4β1 integrin is 140 nM; on α4β7 integrin [1], 27 nM; on α4β7 integrin [2], 0.83 nM. The compound further returned a Selectivity at α4β7 integrin [2] of 170.
For `Cn1ccc(=O)n(-c2ccc(C[C@H](NC(=O)c3c(F)cc(NS(=O)(=O)c4ccc(-c5ncccn5)cn4)cc3F)C(=O)O)cc2)c1=O` [Example 40, N-(2,6-Difluoro-4-{[(5-pyrimidin-2-yl-pyridin-2-yl)sulfonyl]amino}benzoyl)-4-(3-methyl-2,6-dioxo-3,6-dihydropyrimidin-1(2H)-yl)-L-phenylalanine], the IC50 at α4β1 integrin was determined as 210 nM; on α4β7 integrin [1], 8.7 nM; at α4β7 integrin [2] it was 0.73 nM. This compound also returned a Selectivity at α4β7 integrin [2] of 290.
As to `Cn1c(=O)n(-c2ccc(C[C@H](NC(=O)c3c(F)cc(NS(=O)(=O)c4ccc(-c5ncccn5)cc4)cc3F)C(=O)O)cc2)c(=O)c2ccncc21` [Example 41, N-(2,6-Difluoro-4-{[(4-pyrimidin-2-yl-phenyl)sulfonyl]amino}benzoyl)-4-(1-methyl-2,4-dioxo-1,4-dihydropyrido[3,4-d]pyrimidin-3(2H)-yl)-L-phenylalanine], the IC50 was found to be 130 nM at α4β1 integrin, 6.4 nM on α4β7 integrin [1] and 0.26 nM at α4β7 integrin [2]. For the same compound, the Selectivity on α4β7 integrin [2] was 500.
For `Cn1c(=O)n(-c2ccc(C[C@H](NC(=O)c3c(F)cc(NS(=O)(=O)c4ccc(-c5ccncc5)nc4)cc3F)C(=O)O)cc2)c(=O)c2ccncc21` [Example 42, N-{4-[(2,4′-Bipyridin-5-yl-sulfonyl)amino]-2,6-difluorobenzoyl}-4-(1-methyl-2,4-dioxo-1,4-dihydropyrido[3,4-d]pyrimidin-3(2H)-yl)-L-phenylalanine], the IC50 is 52 nM on α4β1 integrin, 8.8 nM at α4β7 integrin [1] and 0.27 nM on α4β7 integrin [2]. For the same compound, the Selectivity on α4β7 integrin [2] was determined as 190.
On the same counts, the results for `Cn1c(=O)n(-c2ccc(C[C@H](NC(=O)c3c(F)cc(NS(=O)(=O)c4ccc(-n5cccc5)cc4)cc3F)C(=O)O)cc2)c(=O)c2ccncc21` [Example 43, N-[2,6-Difluoro-4-({[4-(1H-pyrrol-1-yl)phenyl]sulfonyl}amino)benzoyl]-4-(1-methyl-2,4-dioxo-1,4-dihydropyrido[3,4-d]pyrimidin-3(2H)-yl)-L-phenylalanine] are 220 nM, 12 nM, 0.9 nM and 240.
With `CCNC(=O)c1ccc(S(=O)(=O)Nc2cc(F)c(C(=O)N[C@@H](Cc3ccc(-n4c(=O)ccn(C)c4=O)cc3)C(=O)O)c(F)c2)cc1` [Example 44, N-{4-[({4-[(Ethylamino)carbonyl]phenyl}sulfonyl)amino]-2,6-difluorobenzoyl}-4-(3-methyl-2,6-dioxo-3,6-dihydropyrimidin-1(2H)-yl)-L-phenylalanine], the results for the IC50 at α4β1 integrin, at α4β7 integrin [1] and at α4β7 integrin [2] were 160 nM, 16 nM and 0.62 nM, respectively. The Selectivity at α4β7 integrin [2] amounted to 260.
Consider `Cn1ccc(=O)n(-c2ccc(C[C@H](NC(=O)c3c(F)cc(NS(=O)(=O)c4ccc(C(=O)NC5CC5)cc4)cc3F)C(=O)O)cc2)c1=O` [Example 45, N-{4-[({4-[(Cyclopropylamino)carbonyl]phenyl}sulfonyl)amino]-2,6-difluorobenzoyl}-4-(3-methyl-2,6-dioxo-3,6-dihydropyrimidin-1(2H)-yl)-L-phenylalanine], for which the results for the IC50 at α4β1 integrin, at α4β7 integrin [1] and at α4β7 integrin [2] were 500 nM, 21 nM and 0.97 nM, respectively. This compound also came in with a Selectivity on α4β7 integrin [2] of 520.
In the case of `COc1cc2c(=O)n(-c3ccc(C[C@H](NC(=O)c4c(F)cc(NS(=O)(=O)c5ccc(-c6ncccn6)cc5)cc4F)C(=O)O)cc3)c(=O)n(C)c2cn1` [Example 46, N-(2,6-Difluoro-4-{[(4-pyrimidin-2-yl-phenyl)sulfonyl]amino}benzoyl)-4-(6-methoxy-1-methyl-2,4-dioxo-1,4-dihydropyrido[3,4-d]pyrimidin-3(2H)-yl)-L-phenylalanine], the figures for the IC50 at α4β1 integrin, on α4β7 integrin [1] and on α4β7 integrin [2] were 200 nM, 15 nM and 1.1 nM, respectively. On α4β7 integrin [2], the Selectivity is listed as 180.
For `CN(C)c1ccc2c(c1)c(=O)n(-c1ccc(C[C@H](NC(=O)c3c(F)cc(NS(=O)(=O)c4ccc(-n5cncn5)cc4)cc3F)C(=O)O)cc1)c(=O)n2C` [Example 47, N-[2,6-Difluoro-4-({[4-(1H-1,2,4-triazol-1-yl)phenyl]sulfonyl}amino)benzoyl]-4-[6-(dimethylamino)-1-methyl-2,4-dioxo-1,4-dihydroquinazolin-3(2H)-yl]-L-phenylalanine], the IC50 on α4β1 integrin stood at 340 nM; at α4β7 integrin [1], 20 nM; at α4β7 integrin [2], 0.32 nM. The same compound showed a Selectivity on α4β7 integrin [2] of 1100.
